Test results taken from patent US5322841A, “Method for producing neutral glucans for pharmaceutical applications” (Alpha-Beta Technology, Inc., priority 1992, dated 1994).

Legend:
[1] = target: β-glucan receptor of monocytes; details: Table 1; value from Czop and Austen, J. Immunology 135(5):3388-3393 (1985); cited from earlier work
[2] = tested on: β-glucan receptor of monocytes; assay: Inhibition of Zymosan ingestion by human monocytes (affinity for the monocyte β-glucan receptor); assay type: cell-based
Protocol: Human monocytes were incubated with various concentrations of the PGG for 15 minutes, washed to remove unbound glucan and then incubated with Zymosan for 30 minutes. After fixing and staining the monolayers, the percentage of monocytes ingesting Zymosan was determined. The affinity of glucan preparations for the β-glucan receptor by was measured according to their ability to competitively occupy the receptor thus inhibiting the uptake of Zymosan by monocytes. Samples were compared by taking the concentration of glucan required to obtain 50% inhibition of Zymosan ingestion.
Two molecular weight fractions of PGG from Saccharomyces cerevisiae R4 were prepared according to the procedure outlined in Example 2. The PGG preparations were then assayed for their affinity to the monocyte β-glucan receptor by measuring inhibition of Zymosan phagocytosis as described in Example 3.

E. coli strain TVDL-rat = assay: E. coli sepsis model in mice; assay type: in vivo
Protocol: A sepsis model was developed in mice to characterize the efficacy of modified PGG glucans in protecting an immunologically intact host against serious infections, such as those which commonly occur following abdominal surgery. PGG derived from WGP-R4 was prepared according to the procedure outlined in Example 2.
The model used intraperitoneal challenge of mice with an 0.1 ml suspension of E. coli strain TVDL-rat (approximately 10^8 CFU/ml) 24 hours following IV administration of PGG by single bolus injection using transthoracic cardiac puncture. Mice were returned to their cages and maintained on food and water ad libitum. A control group of 10 mice were injected with 0.1 ml sterile saline at the time of the PGG administration. Mortality rates for the treatment groups and saline control group were recorded at 48 hours after challenge.

[3] = tested on: peripheral white blood cell (WBC) counts; assay: Peripheral total and differential white blood cell counts in mice after IV or SC PGG; assay type: in vivo, male CD-1 mice
Protocol: The effect of in vivo administration of modified glucans on peripheral white blood cell (WBC) counts was characterized in mice. PGG preparations of the modified glucan from strain R4 were prepared according to the procedure outlined in Example 2 and administered intravenously (IV) and subcutaneously (SC) to male CD-1 mice. Total and differential cell counts were monitored at regular time intervals.

[4] = most pronounced increase, FIGS. 2 and 3, mice
[5] = multiple-dose SC regimen, 5 mg/mouse/day×4 days, after initiation of therapy

Barley β-Glucan [reference compound]
Concentration for 50% Inhibition [1]: 65 µg/mL
Relative Avidity ([2]; Table 1, relative to Barley β-Glucan = 1): 1

poly-(1-6)-β-D-glucopyranosyl-(1-3)-β-D-glucopyranose [PGG]
lowest dose significantly reducing mortality (E. coli strain TVDL-rat; single IV bolus 24 hours before E. coli challenge, equals 0.5 mg/kg body weight): 0.01 mg/mouse
mortality at 48 hours after challenge compared to saline control group (E. coli strain TVDL-rat; single IV bolus 24 hours before intraperitoneal E. coli challenge, p<0.05, doses as low as 0.01 mg/mouse (0.5 mg/kg body weight)): significantly reduced mortality
concentration of glucan required to obtain 50% inhibition of Zymosan ingestion ([2]; human monocytes incubated with glucan 15 minutes, then Zymosan 30 minutes, FIG. 1): 0.1 µg/mL
increase in activity (affinity for monocyte β-glucan receptor) versus YE glucan ([2]; ratio of concentrations for 50% inhibition of Zymosan ingestion): 35 fold
time to amplification of total WBC counts ([3]; FIGS. 2 and 3, mice): < 6 h
increase in granulocyte count [3, 4]: 6 ×
increase in monocyte count [3, 4]: 12 ×
increase in average monocyte count, zero hours to 144 hours ([3]; multiple-dose SC regimen): 24 fold
time at which increase in total WBC begins [3, 5]: 48 h
time at which increase in total WBC peaks [3, 5]: 144 h
average monocyte count ([3]; multiple-dose SC regimen, at 144 hours (320/mm^3 at zero hours)): approximately 8,000 /mm^3
total WBC count ([3]; single-dose IV administration, 5 mg/mouse): profound increase
